What was measured:
Assay type in all cases: in vitro ADME
[1] = Assay 1. Stability in Simulated Gastric Fluid (SGF); settings: SGF pH 1.6 with pepsin, 1 μM, 37° C.
Procedure, shortened: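 Degradation rate from LC/MS of acetonitrile-quenched aliquots (T0, then regular intervals). Fresh SGF (pH 1.6 NaCl, FaSSIF powder, pepsin 0.1 mg/mL) held compound at 1 μM final, 37° C; 1 mM DMSO stock.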

[2] = Assay 2. Stability in Simulated Intestinal Fluid (SIF); settings: SIF pH 6.7 with pancreatin, 1 μM, 37° C.
Procedure, shortened: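 Degradation rates came from LC/MS of acetonitrile-quenched samples drawn at intervals, starting at T0. The medium was freshly made pH 6.7 FaSSIF containing pancreatin, and test compound was present at 1 µM while being shaken at 37 °C.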

[3] = Assay 3. In vitro Colonic Material Stability Assay; settings: colonic material slurry, anaerobic, 1 or 10 μM

Row | Compound | Assay 1 (SGF) (% Remaining @ 1 hour) [1] | Assay 2 (SIF) (% @ Remaining 4 hours) [2] | Assay 3 (% Remaining at 24 h) [3]
1 | CCCC(=O)OC[C@H]1O[C@@H](OC(=O)CCc2c[nH]c3ccccc23)[C@H](OC(=O)CCC)[C@@H](OC(=O)CCC)[C@@H]1OC(=O)CCC [Compound 85, [(2R,3R,4S,5R,6S)-3,4,5-tris(butanoyloxy)-6-{[3-(1H-indol-3-yl)propanoyl]oxy}oxan-2-yl]methyl butanoate] | B (25-75% of the tested compound remaining) | A (<25% of the tested compound remaining) | A (<25% of the tested compound remaining)
2 | CCCC(=O)OC[C@H]1O[C@H](OC(=O)CCc2c[nH]c3ccccc23)[C@H](OC(=O)CCC)[C@@H](OC(=O)CCC)[C@@H]1OC(=O)CCC [Compound 90, [(2R,3R,4S,5R,6R)-3,4,5-tris(butanoyloxy)-6-{[3-(1H-indol-3-yl)propanoyl]oxy}oxan-2-yl]methyl butanoate] | C (>75% of the tested compound remaining) | B (25-75% of the tested compound remaining) | A (<25% of the tested compound remaining)
3 | CCC(=O)O[C@@H]1[C@@H](OC(=O)CC)[C@H](OC(=O)/C=C/c2c[nH]c3ccccc23)OC[C@H]1OC(=O)CC [Compound 91, (2S,3R,4S,5R)-3,4,5-tris(propanoyloxy)oxan-2-yl (2E)-3-(1H-indol-3-yl)prop-2-enoate] | C (>75% of the tested compound remaining) | A (<25% of the tested compound remaining) | A (<25% of the tested compound remaining)
4 | CCC(=O)O[C@H]1[C@H](OC(=O)/C=C/c2c[nH]c3ccccc23)OC[C@@H](OC(=O)CC)[C@H]1OC(=O)CC [Compound 92, (2S,3R,4R,5R)-3,4,5-tris(propanoyloxy)oxan-2-yl (2E)-3-(1H-indol-3-yl)prop-2-enoate] | C (>75% of the tested compound remaining) | A (<25% of the tested compound remaining) | A (<25% of the tested compound remaining)
5 | CCC(=O)O[C@@H]1[C@@H](OC(=O)CC)[C@@H](OC(=O)/C=C/c2c[nH]c3ccccc23)OC[C@H]1OC(=O)CC [Compound 93, (2R,3R,4S,5R)-3,4,5-tris(propanoyloxy)oxan-2-yl (2E)-3-(1H-indol-3-yl)prop-2-enoate] | C (>75% of the tested compound remaining) | A (<25% of the tested compound remaining) | A (<25% of the tested compound remaining)
6 | CCC(=O)O[C@H]1[C@@H](OC(=O)CCc2c[nH]c3ccccc23)OC[C@@H](OC(=O)CC)[C@H]1OC(=O)CC [Compound 94, (2R,3R,4R,5R)-3,4,5-tris(propanoyloxy)oxan-2-yl 3-(1H-indol-3-yl)propanoate] | C (>75% of the tested compound remaining) | A (<25% of the tested compound remaining) | A (<25% of the tested compound remaining)
7 | CCCC(=O)O[C@@H]1[C@@H](OC(=O)CCC)[C@@H](OC(=O)CCc2c[nH]c3ccccc23)OC[C@H]1OC(=O)CCC [Compound 96, (2R,3R,4S,5R)-4,5-bis(butanoyloxy)-2-{[3-(1H-indol-3-yl)propanoyl]oxy}oxan-3-yl butanoate] | C (>75% of the tested compound remaining) | A (<25% of the tested compound remaining) | A (<25% of the tested compound remaining)
8 | CCC(=O)O[C@H]1[C@H](OC(=O)CCc2c[nH]c3ccccc23)OC[C@@H](OC(=O)CC)[C@H]1OC(=O)CC [Compound 98, (2S,3R,4R,5R)-3,4,5-tris(propanoyloxy)oxan-2-yl 3-(1H-indol-3-yl)propanoate] | B (25-75% of the tested compound remaining) | A (<25% of the tested compound remaining) | A (<25% of the tested compound remaining)
9 | CCC(=O)O[C@H]1OC[C@@H](OC(=O)CC)[C@@H](OC(=O)CC)[C@H]1OC(=O)CC [Compound 101, (2R,3R,4R,5R)-3,4,5-tris(propanoyloxy)oxan-2-yl propanoate] | C (>75% of the tested compound remaining) | A (<25% of the tested compound remaining) | A (<25% of the tested compound remaining)
10 | CCC(=O)O[C@@H]1[C@@H](OC(=O)CC)[C@H](C)O[C@@H](OC(=O)/C=C/c2c[nH]c3ccccc23)[C@@H]1OC(=O)CC [Compound 102, (2S,3R,4R,5S,6S)-6-methyl-3,4,5-tris(propanoyloxy)oxan-2-yl (2E)-3-(1H-indol-3-yl)prop-2-enoate] | C (>75% of the tested compound remaining) | B (25-75% of the tested compound remaining) | A (<25% of the tested compound remaining)
11 | CCC(=O)O[C@@H]1[C@@H](OC(=O)CC)[C@H](OC(=O)Cc2c[nH]c3ccccc23)OC[C@@H]1OC(=O)CC [Compound 103, (3S,4S,5R,6S)-6-{[2-(1H-indol-3-yl)acetyl]oxy}-4,5-bis(propanoyloxy)oxan-3-yl propanoate] | C (>75% of the tested compound remaining) | A (<25% of the tested compound remaining) | A (<25% of the tested compound remaining)
12 | CCC(=O)O[C@@H]1OC[C@@H](OC(=O)CC)[C@@H](OC(=O)CC)[C@H]1OC(=O)CC [Compound 104, (2S,3R,4R,5R)-3,4,5-tris(propanoyloxy)oxan-2-yl propanoate] | C (>75% of the tested compound remaining) | A (<25% of the tested compound remaining) | A (<25% of the tested compound remaining)
13 | CCC(=O)O[C@@H]1[C@H](OC(=O)CC)COC(O)[C@@H]1OC(=O)CC (stereo partly drawn) [Compound 105, (3R,4R,5R)-2-hydroxy-4,5-bis(propanoyloxy)oxan-3-yl propanoate] | C (>75% of the tested compound remaining) | B (25-75% of the tested compound remaining) | B (25-75% of the tested compound remaining)
14 | CCC(=O)O[C@H]1[C@H](OC(=O)Cc2c[nH]c3ccccc23)OC[C@@H](OC(=O)CC)[C@H]1OC(=O)CC [Compound 106, (2S,3R,4R,5R)-2-{[2-(1H-indol-3-yl)acetyl]oxy}-4,5-bis(propanoyloxy)oxan-3-yl propanoate] | C (>75% of the tested compound remaining) | A (<25% of the tested compound remaining) | A (<25% of the tested compound remaining)
15 | CCC(=O)O[C@@H]1[C@@H](OC(=O)CC)[C@H](C)O[C@H](OC(=O)/C=C/c2c[nH]c3ccccc23)[C@@H]1OC(=O)CC [Compound 107, (2R,3R,4R,5S,6S)-6-methyl-3,4,5-tris(propanoyloxy)oxan-2-yl (2E)-3-(1H-indol-3-yl)prop-2-enoate] | B (25-75% of the tested compound remaining) | A (<25% of the tested compound remaining) | B (25-75% of the tested compound remaining)
16 | CCC(=O)O[C@@H]1[C@@H](OC(=O)CC)[C@@H](OC(=O)Cc2c[nH]c3ccccc23)OC[C@@H]1OC(=O)CC [Compound 108, (3S,4S,5R,6R)-6-{[2-(1H-indol-3-yl)acetyl]oxy}-4,5-bis(propanoyloxy)oxan-3-yl propanoate] | C (>75% of the tested compound remaining) | A (<25% of the tested compound remaining) | A (<25% of the tested compound remaining)
17 | CCC(=O)OC[C@H]1O[C@H](OC(=O)CCc2c[nH]c3ccccc23)[C@H](OC(=O)CC)[C@@H](OC(=O)CC)[C@@H]1OC(=O)CC [Compound 109, [(2R,3R,4S,5R,6R)-6-{[3-(1H-indol-3-yl)propanoyl]oxy}-3,4,5-tris(propanoyloxy)oxan-2-yl]methyl propanoate] | C (>75% of the tested compound remaining) | A (<25% of the tested compound remaining) | A (<25% of the tested compound remaining)
18 | CCC(=O)OC[C@H]1O[C@@H](OC(=O)Cc2c[nH]c3ccccc23)[C@H](OC(=O)CC)[C@@H](OC(=O)CC)[C@@H]1OC(=O)CC [Compound 111, [(2R,3R,4S,5R,6S)-6-{[2-(1H-indol-3-yl)acetyl]oxy}-3,4,5-tris(propanoyloxy)oxan-2-yl]methyl propanoate] | C (>75% of the tested compound remaining) | A (<25% of the tested compound remaining) | A (<25% of the tested compound remaining)
19 | CCC(=O)OC[C@H]1O[C@@H](OC(=O)CCc2c[nH]c3ccccc23)[C@H](OC(=O)CC)[C@@H](OC(=O)CC)[C@@H]1OC(=O)CC [Compound 112, [(2R,3R,4S,5R,6S)-6-{[3-(1H-indol-3-yl)propanoyl]oxy}-3,4,5-tris(propanoyloxy)oxan-2-yl]methyl propanoate] | C (>75% of the tested compound remaining) | A (<25% of the tested compound remaining) | A (<25% of the tested compound remaining)
